# Assay results from patent US11486825B1, “Devices and methods for analysis of biological matter using plasmon resonance” (THE FLORIDA INTERNATIONAL UNIVERSITY BOARD OF TRUSTEES, priority 2022, dated 2022).
# System: contracting CMs (cardiomyocytes)
# Assay: P-CeG (plasmonic cardio-eukaryography) signal of contracting cardiomyocytes cultured on gold SPR sensor, consecutive drug injections
# Type: cell-based
# From the text: The device as shown in FIGS. 1(a) and 1(c) was used for experiments and studies. The device had dimensions of 12 cm×7.5 cm×5 cm and had micro LEDs, LED splitters, micro prisms, micro polarizers, and micro detectors that induced plasmonic waveguides and detected changes in the electrical/mechanical activity of a cell membrane. Cellular function of mechanical and electrical origins was filtered and sorted using software in operable communication with the sensing platform, and was then compared to the physiological parameters of a healthy cell. […] The hinged cap (fluidic module) had heavy-duty gaskets made from PDMS attached thereto. Micropumps and microtubing on the were used to drive the flow of the cell medium from its attached reservoir. The base of the device acted as a Faraday cage for the micro settings of plasmonic induction and detection, as well as related PCB boards and computer interface connectors of the sensing platform. The refraction index of the prisms was […] (each prism was a BK7 prism from a BI2000 device (Biosensing Instruments, AZ). The cell-SPR model discussed herein with reference to FIGS. 2(a)-2(f) was used as the cell-SPR model for experiments.
# Empirical P-CeG data was correlated to the mathematical model of charge distribution near CM's cell membrane. FIG. 10(a) illustrates the four phases in a CM's action potential, field potential, and force of contraction profile (top to bottom, respectively) over time. The dashed vertical lines show phases 0, 1, 2, and 3 of the CM's electromechanical activities. […] Values were extracted using equations from the cell-SPR model. […] Arrows from left to right in the bottom graph depict the depolarization amplitude (DA), field potential duration (FPD), and the repolarization amplitude (RA) as the main features of a CM's field potential. These are also elaborated on in FIG. 10(e) and FIG. 10(f).
# Feature extraction was performed on a P-CeG signal and its correlated charge profile of contracting CMs. FIGS. 11(a), 11(b), and 11(c) show amplitude, full width at half maximum (FWHM), and inter-beat intervals (IBI), respectively, for a 100-second epoch from the P-CeG signal obtained from 12 CM-cultured gold sensors. The high variability of values across different sensors is due to the selected methodology for cell isolation and non-ideal experimental conditions (room temperature and without CO2). FIGS. 11(d), 11(e), and 11(f) show DA, RA, and FPD of contracting CMs obtained from their charge profile.
# Analysis was performed using blebbistatin as the cells to be analyzed. Consecutive injections of 1 micromolar (04), 3 μM, 5 μM, 7 and 9 μM blebbistatin were performed, and the P-CeG signals were recorded and analyzed. […] A decrease of the control sample's amplitude and high variability in the FWHM of data with time indicate decreased cellular functionality due to non-ideal experimental conditions. Average data are reported as mean±std: 1-way ANOVA, p<0.0001, 95% CI.
# Analysis was performed using verapamil as the cells to be analyzed. Consecutive injections of 50 nanomolar (nM), 100 nM, 200 nM, and 500 nM verapamil were performed, and the P-CeG signals were recorded and analyzed. […] Average data are reported as mean±std: 1-way ANOVA, p<0.0001, 95% CI. […] Referring to FIGS. 14(k) and 14(l), an increase in FPD and FWHM of the signals is distinctly observable with increasing verapamil concentrations.
# Analysis was performed using caffeine as the cells to be analyzed. Consecutive injections of 2 millimolar (mM), 4 mM, 6 mM, and 8 mM caffeine were performed, and the P-CeG signals were recorded and analyzed. […] Average data are reported as mean±std: 1-way ANOVA, p<0.0001, 95% CI.
smiles,measurement,setting,value
Cn1c(=O)c2c(ncn2C)n(C)c1=O [caffeine],P-CeG signal amplitude (refractive index change),"consecutive injections of 2, 4, 6 and 8 mM caffeine vs control, FIGS. 15(a), 15(b), 15(d)",presence of detectable signal amplitude
same,peak amplitudes (normalized refractive angle change),"increased caffeine concentrations 2-8 mM, FIG. 15(i)",relatively unchanged
same,FWHM duration,"increased caffeine concentrations 2-8 mM, FIG. 15(j)",relatively unchanged
same,"cell signaling rate (action potential per minute, APM)","increased caffeine concentrations 2-8 mM, FIG. 15(k)",decreases
same,depolarization amplitude (DA),"increasing caffeine concentrations 2-8 mM, FIG. 15(f)",no significant difference
same,repolarization amplitude (RA),"increasing caffeine concentrations 2-8 mM, FIG. 15(g)",no significant difference
same,field potential duration (FPD),"increasing caffeine concentrations 2-8 mM, FIG. 15(h)",slight increase
Cc1ccc2c(c1)C(=O)C1(O)CCN(c3ccccc3)C1=N2 (stereo not drawn) [blebbistatin],P-CeG signal amplitude (refractive index change),"consecutive injections of 1, 3, 5, 7 and 9 μM blebbistatin vs control, FIGS. 13(a), 13(b), 13(d)",continuous decrease in signal amplitude
same,signal's peak amplitudes (normalized refractive angle change),"five concentrations of blebbistatin 1-9 μM, FIG. 13(i)",decreased
same,FWHM duration,"five concentrations of blebbistatin 1-9 μM, FIG. 13(j)",higher variability
same,"cell signaling rate (action potential per minute, APM)","five concentrations of blebbistatin 1-9 μM, FIG. 13(k)",relatively unchanged
same,depolarization amplitude (DA),"increasing blebbistatin concentrations 1-9 μM, FIG. 13(f)",no significant difference
same,repolarization amplitude (RA),"increasing blebbistatin concentrations 1-9 μM, FIG. 13(g)",no significant difference
same,field potential duration (FPD),"increasing blebbistatin concentrations 1-9 μM, FIG. 13(h)",showed a decrease
COc1ccc(CCN(C)CCCC(C#N)(c2ccc(OC)c(OC)c2)C(C)C)cc1OC (stereo not drawn) [verapamil],P-CeG signal amplitude (refractive index change),"consecutive injections of 50, 100, 200 and 500 nM verapamil vs control, FIGS. 14(a), 14(b), 14(d)",sharp decrease in signal amplitude
same,peak amplitudes (normalized refractive angle change),"increasing verapamil concentration 50-500 nM, FIG. 14(h)",decreased
same,FWHM duration,"increasing verapamil concentration 50-500 nM, FIG. 14(i)",slightly increases before it becomes undetectable and is counted as zero
same,"cell signaling rate (action potential per minute, APM)","increasing verapamil concentration 50-500 nM, FIG. 14(j)",decreased
same,depolarization amplitude (DA),"increasing verapamil concentrations 50-500 nM, FIG. 14(e)",no significant difference
same,repolarization amplitude (RA),"increasing verapamil concentrations 50-500 nM, FIG. 14(f)",no significant difference
same,field potential duration (FPD),"increasing verapamil concentrations 50-500 nM, FIG. 14(g)",showed an increase
